According to patent US10952433B2, “Solutions for enhancing the effectiveness of insecticides and fungicides on living plants and related methods” (priority 2015, dated 2021):
Like-named read-outs stand apart in the source and are kept apart here.

Assays:
[1] = tested on: Gypsy Moth Catepillar; assay: Gypsy moth caterpillar damage to white oak seedlings after hand spray (Table 5); assay type: in vivo, gypsy moth (on white oak seedlings)
Protocol: The particular solutions tested were applied to a stem of the white oak seedling using a low volume hand spray and spraying 20 milliliters per seedling. A total of 20 seedlings were tested. […] At permethrin concentration of 50 ppm, the damage after one month was 30% and with 100 ppm used alone, the damage was 0. When buffered amine oxide system No. 3 was employed in concentrations of 400:1 with 10 ppm of the insecticide, the gypsy moth caterpillar damage was 10% and when a concentration of 200:1 was employed with 10 ppm insecticide, the damage was 0.

[2] = tested on: lepidopteran larvae: cabbage loopers (Trichoplusia ni) and beet armyworms (Spodoptera exigua); assay type: in vivo; settings: leaf discs
Method in brief: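 Romaine lettuce leaf discs (⅝ inch) dipped about one second in treatment solution and infested with four cabbage loopers and four beet armyworms (3rd-4th instar) per container. Held dark at 15 °C, 80% RH; percent disc-area damage scored visually in 5% increments at 24, 48 and 72 h.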

[3] = tested on: lepidopteran larvae: cabbage loopers (Trichoplusia ni) and beet armyworms (Spodoptera exigua); assay type: in vivo; settings: plants
Method in brief: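 Romaine lettuce plants 2-3 inches tall were sprayed with 10 mL of insecticide (ppm) with buffer, amine oxide or buffered amine oxide at 200:1, then infested with 15 T. ni and 15 S. exigua larvae (5th-6th instar) per container. Leaf surface damage scored visually in 5% increments after 24 h.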

[4] = insecticide + CO3 buffer 200:1, no amine oxide, PPM: Chlorantranilopril 60, Acephate 70, Methoxyfenozide 100, Spinosad 30, Permethrin 10, Indoxacarb 50
[5] = insecticide + PO4 buffer 200:1, no amine oxide, PPM: Chlorantranilopril 60, Acephate 70, Methoxyfenozide 100, Spinosad 30, Permethrin 10, Indoxacarb 50
[6] = insecticide + amine oxide 12, no buffer, 200:1, PPM: Chlorantranilopril 60, Acephate 70, Methoxyfenozide 100, Spinosad 30, Permethrin 10, Indoxacarb 50
[7] = insecticide + amine oxide 1218, no buffer, 200:1, PPM: Chlorantranilopril 60, Acephate 70, Methoxyfenozide 100, Spinosad 30, Permethrin 10, Indoxacarb 50
[8] = insecticide + buffered amine oxide system CO3, 12, 200:1, PPM: Chlorantranilopril 60, Acephate 70, Methoxyfenozide 100, Spinosad 30, Permethrin 10, Indoxacarb 50
[9] = insecticide + buffered amine oxide system CO3, 1218, 200:1, PPM: Chlorantranilopril 60, Acephate 70, Methoxyfenozide 100, Spinosad 30, Permethrin 10, Indoxacarb 50
[10] = insecticide + buffered amine oxide system PO4, 12, 200:1, PPM: Chlorantranilopril 60, Acephate 70, Methoxyfenozide 100, Spinosad 30, Permethrin 10, Indoxacarb 50
[11] = insecticide + buffered amine oxide system PO4, 1218, 200:1, PPM: Chlorantranilopril 60, Acephate 70, Methoxyfenozide 100, Spinosad 30, Permethrin 10, Indoxacarb 50
[12] = insecticide alone, highest, PPM: Chlorantranilopril 120, Acephate 140, Methoxyfenozide 200, Spinosad 60, Permethrin 20, Indoxacarb 100
[13] = insecticide alone, increased, PPM: Chlorantranilopril 90, Acephate 105, Methoxyfenozide 150, Spinosad 45, Permethrin 15, Indoxacarb 75
[14] = insecticide alone, PPM: Chlorantranilopril 60, Acephate 70, Methoxyfenozide 100, Spinosad 30, Permethrin 10, Indoxacarb 50

## CC1(C)C(C=C(Cl)Cl)C1C(=O)OCc1cccc(Oc2ccccc2)c1 (stereo not drawn) [Permethrin]
[1]; Permethrin 10 PPM + buffered amine oxide system 3, amine oxide 12, 200:1
  Percent Gypsy Moth Catepillar Damage to White Oak 1 Month After Application: 0%
[1]; Permethrin 10 PPM + buffered amine oxide system 3, amine oxide 12, 400:1
  Percent Gypsy Moth Catepillar Damage to White Oak 1 Month After Application: 10%
[1]; Permethrin 10 PPM + buffered amine oxide system 4, amine oxide 12, 200:1
  Percent Gypsy Moth Catepillar Damage to White Oak 1 Month After Application: 0%
[1]; Permethrin 10 PPM + buffered amine oxide system 4, amine oxide 12, 400:1
  Percent Gypsy Moth Catepillar Damage to White Oak 1 Month After Application: 10%
[1]; Permethrin 10 PPM alone
  Percent Gypsy Moth Catepillar Damage to White Oak 1 Month After Application: 80%
[1]; Permethrin 50 PPM alone
  Percent Gypsy Moth Catepillar Damage to White Oak 1 Month After Application: 30%
[1]; Permethrin 100 PPM alone
  Percent Gypsy Moth Catepillar Damage to White Oak 1 Month After Application: 0%
[2]; [4]
  Percent Lepidopteran Damage to Romaine Lettuce 24 hr: 53.5%
  Percent Lepidopteran Damage to Romaine Lettuce 48 hr: 97.5%
  Percent Lepidopteran Damage to Romaine Lettuce 72 hr: 100.0%
[2]; [5]
  Percent Lepidopteran Damage to Romaine Lettuce 24 hr: 28.5%
  Percent Lepidopteran Damage to Romaine Lettuce 48 hr: 79.0%
  Percent Lepidopteran Damage to Romaine Lettuce 72 hr: 100.0%
[2]; [6]
  Percent Lepidopteran Damage to Romaine Lettuce 24 hr: 17.0%
  Percent Lepidopteran Damage to Romaine Lettuce 48 hr: 60.0%
  Percent Lepidopteran Damage to Romaine Lettuce 72 hr: 89.0%
[2]; [7]
  Percent Lepidopteran Damage to Romaine Lettuce 24 hr: 24.0%
  Percent Lepidopteran Damage to Romaine Lettuce 48 hr: 95.0%
  Percent Lepidopteran Damage to Romaine Lettuce 72 hr: 100.0%
[2]; [8]
  Percent Lepidopteran Damage to Romaine Lettuce 24 hr: 23.5%
  Percent Lepidopteran Damage to Romaine Lettuce 48 hr: 67.0%
  Percent Lepidopteran Damage to Romaine Lettuce 72 hr: 91.0%
[2]; [9]
  Percent Lepidopteran Damage to Romaine Lettuce 24 hr: 2.0%
  Percent Lepidopteran Damage to Romaine Lettuce 48 hr: 4.5%
  Percent Lepidopteran Damage to Romaine Lettuce 72 hr: 5.0%
[2]; [10]
  Percent Lepidopteran Damage to Romaine Lettuce 24 hr: 3.0%
  Percent Lepidopteran Damage to Romaine Lettuce 48 hr: 10.5%
  Percent Lepidopteran Damage to Romaine Lettuce 72 hr: 21.0%
[2]; [11]
  Percent Lepidopteran Damage to Romaine Lettuce 24 hr: 1.5%
  Percent Lepidopteran Damage to Romaine Lettuce 48 hr: 3.0%
  Percent Lepidopteran Damage to Romaine Lettuce 72 hr: 3.0%
[2]; [12]
  Percent Lepidopteran Damage to Romaine Lettuce 24 hr: 1.5%
  Percent Lepidopteran Damage to Romaine Lettuce 48 hr: 4.0%
  Percent Lepidopteran Damage to Romaine Lettuce 72 hr: 4.5%
[2]; [13]
  Percent Lepidopteran Damage to Romaine Lettuce 24 hr: 0.0%
  Percent Lepidopteran Damage to Romaine Lettuce 48 hr: 0.5%
  Percent Lepidopteran Damage to Romaine Lettuce 72 hr: 0.5%
[2]; [14]
  Percent Lepidopteran Damage to Romaine Lettuce 24 hr: 85.5%
  Percent Lepidopteran Damage to Romaine Lettuce 48 hr: 100.0%
  Percent Lepidopteran Damage to Romaine Lettuce 72 hr: 100.0%
[3]; [4]
  Percent Lepidopteran Damage to Romaine Lettuce 24 hr: 80.5%
[3]; [5]
  Percent Lepidopteran Damage to Romaine Lettuce 24 hr: 83.0%
[3]; [6]
  Percent Lepidopteran Damage to Romaine Lettuce 24 hr: 77.5%
[3]; [7]
  Percent Lepidopteran Damage to Romaine Lettuce 24 hr: 72.0%
[3]; [8]
  Percent Lepidopteran Damage to Romaine Lettuce 24 hr: 22.5%
[3]; [9]
  Percent Lepidopteran Damage to Romaine Lettuce 24 hr: 28.0%
[3]; [10]
  Percent Lepidopteran Damage to Romaine Lettuce 24 hr: 24.0%
[3]; [11]
  Percent Lepidopteran Damage to Romaine Lettuce 24 hr: 21.0%
[3]; [12]
  Percent Lepidopteran Damage to Romaine Lettuce 24 hr: 90.0%
[3]; [13]
  Percent Lepidopteran Damage to Romaine Lettuce 24 hr: 78.0%
[3]; [14]
  Percent Lepidopteran Damage to Romaine Lettuce 24 hr: 77.0%
